Activity calls are given as the source filed them. The calls are words filed in the database; no cut-off is given here.
Key:
MT4 [1] = assay: Average antiviral activity against HIV-1 in MT-4 cells using cell-protection assay; type: functional, cell-based; details: Homo sapiens
MT4 [2] = assay: antiviral activity against HIV-1 in MT-4 cells using cell-protection assay at a concentration of 200 uM; type: functional, cell-based; details: Homo sapiens

Structure (SMILES) | IC50 (MT4 [1]) | Activity (MT4 [2])
Cc1cn([C@H]2C[C@H](N=[N+]=[N-])[C@@H](CO)O2)c(=O)[nH]c1=O [ZIDOVUDINE] | 60 nM | 
Cc1cn(C2CC(N=[N+]=[N-])C(/C=C/P(=O)(O)O)O2)c(=O)[nH]c1=O (stereo not given) |  | inactive
Cc1cn(C2CC(N=[N+]=[N-])C(CCP(=O)(O)O)O2)c(=O)[nH]c1=O (stereo not given) |  | inactive
Cc1cn(C2CC(N=[N+]=[N-])C(CCP(=O)(O)Oc3ccccc3)O2)c(=O)[nH]c1=O (stereo not given) |  | inactive
Cc1cn(C2CC(N=[N+]=[N-])C(/C=C/P(=O)(O)Oc3ccccc3)O2)c(=O)[nH]c1=O (stereo not given) |  | inactive

From ChEMBL document CHEMBL1125537, “3'-Azido-3',5'-dideoxythymidine-5'-methylphosphonic acid diphosphate: synthesis and HIV-1 reverse transcriptase inhibition” (J Med Chem, 1992)
